We go through one molecule from patent US10993957B2 (NuCana plc, priority 2011, dated 2021).

In series [1] the target is human UP (Homo sapiens, UniProt Q16831). Nature of the series: Phosphorolysis by human UP, HPLC. As to conditions: 100 μM compound, room temperature, 0-40 min. Here is the method: (§1) Reaction mixtures containing 100 μM test compound and recombinant TP or UP (human TP: 8.6 ng/μL; E. coli TP: 3.0 ng/μL; human UP: 4 ng/mL) in a total volume of 500 μL reaction buffer (10 mM TrisHCl; 300 μM NaCl; 1 mM EDTA; 2 mM KH2PO4/K2HPO4) were incubated at room temperature. At different time points (i.e. 0, 20, 40 min) 100 μL aliquots of the reaction mixtures were withdrawn and heated at 95° C. for 3 min to inactivate the enzyme. […] The separation of Urd from uracil was performed by a linear gradient from 100% separation buffer (see above) to 60% separation buffer+40% acetonitrile (3 min 100% separation buffer; 6 min linear gradient of 100% separation buffer to 60% separation buffer+40% acetonitrile; 6 min 60% separation buffer+40% acetonitrile, followed by equilibration at 100% separation buffer).
human UP, sequence (Q16831 whole entry): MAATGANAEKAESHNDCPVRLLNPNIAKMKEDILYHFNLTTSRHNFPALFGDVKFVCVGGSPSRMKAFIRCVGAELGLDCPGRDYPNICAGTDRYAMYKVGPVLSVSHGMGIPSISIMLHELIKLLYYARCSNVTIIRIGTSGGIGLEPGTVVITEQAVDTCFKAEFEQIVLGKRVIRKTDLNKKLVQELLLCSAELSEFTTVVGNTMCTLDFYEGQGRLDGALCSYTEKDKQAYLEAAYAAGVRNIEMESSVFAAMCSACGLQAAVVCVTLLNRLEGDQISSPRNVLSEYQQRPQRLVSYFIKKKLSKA

Series [2] concerns the target T1, human TP (Homo sapiens, UniProt P19971).
T1 sequence (P19971 11-482): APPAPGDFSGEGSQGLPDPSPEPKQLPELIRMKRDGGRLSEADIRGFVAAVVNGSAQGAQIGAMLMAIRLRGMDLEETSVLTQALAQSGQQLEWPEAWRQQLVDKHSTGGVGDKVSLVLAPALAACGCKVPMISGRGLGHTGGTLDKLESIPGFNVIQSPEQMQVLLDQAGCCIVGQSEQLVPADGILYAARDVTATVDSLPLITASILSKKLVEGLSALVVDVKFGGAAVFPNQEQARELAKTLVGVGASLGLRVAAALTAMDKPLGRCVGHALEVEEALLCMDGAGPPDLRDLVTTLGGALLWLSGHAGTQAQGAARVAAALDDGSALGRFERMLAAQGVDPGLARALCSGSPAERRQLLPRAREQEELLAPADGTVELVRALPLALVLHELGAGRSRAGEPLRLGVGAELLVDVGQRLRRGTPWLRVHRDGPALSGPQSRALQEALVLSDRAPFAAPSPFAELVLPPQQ
Nature of the series: Phosphorolysis by human TP, HPLC. The settings on record: 100 μM compound, room temperature, 0-40 min. As for the experimental part:
as §1

Series [3] addresses T2, carboxypeptidase Y (Saccharomyces cerevisiae, UniProt P00729).
T2 construct: purchased Sigma-Aldrich
T2 sequence (P00729 112-532): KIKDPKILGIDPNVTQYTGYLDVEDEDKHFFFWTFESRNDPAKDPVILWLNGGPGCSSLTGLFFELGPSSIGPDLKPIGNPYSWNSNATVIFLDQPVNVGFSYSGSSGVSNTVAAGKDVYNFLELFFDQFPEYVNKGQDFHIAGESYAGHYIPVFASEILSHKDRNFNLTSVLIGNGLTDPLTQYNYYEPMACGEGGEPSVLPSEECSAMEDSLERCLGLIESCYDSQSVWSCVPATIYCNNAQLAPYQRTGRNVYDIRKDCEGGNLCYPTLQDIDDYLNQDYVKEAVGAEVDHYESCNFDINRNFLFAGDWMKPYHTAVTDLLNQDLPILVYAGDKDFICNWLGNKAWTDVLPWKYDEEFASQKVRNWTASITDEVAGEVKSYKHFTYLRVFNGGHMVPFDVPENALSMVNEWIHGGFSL
Nature of the series: Carboxypeptidase Y assay by in situ 31P NMR. As to conditions: yeast (Saccharomyces cerevisiae), 5 mg/mL, pH 7.6. The class given is in vitro ADME. Here is the method:
The enzymatic stability of the prodrug CPF-373 towards carboxypeptidase Y was studied using in situ ^31P NMR (202 MHz). The experiment was carried out by dissolving CPF-373 (3.0 mg) in d6-acetone (150 μL) and adding TRIZMA buffer pH 7.6 (300 μL). The resulting solution was placed in an NMR tube and a ^31P-NMR experiment at 25° C. was recorded as the blank experiment. The enzyme Carboxypeptidase Y (0.2 mg) was solubilised in TRIZMA (150 μL) and added to the solution of the phosphoramidate derivative in the NMR tube. Next, the tube was placed in the NMR machine, which was set to run a ^31P-NMR experiment (64 scans) every 4 minutes for 14 hours at 25° C. Data were processed and analysed with the Bruker Topspin 2.1 program. Carboxypeptidase Y and TRIZMA buffer were purchased from Sigma-Aldrich.
The compound (1) was incubated with carboxypeptidase Y (also known as cathepsin A) in TRIZMA buffer and the conversion of (1) was monitored by ^31P NMR. For a better resolution original spectra (lower graphs) and deconvoluted ones (upper graphs) are shown.
A enzymatic study using a carboxypeptidase Y assay was performed in which compound CPF 581, carboxypeptidase Y, and Trizma buffer (pH 7.6) were dissolved in acetone-d6 and ^31P NMR spectrum (202 MHz) spectra were recorded at regular intervals (every 7 min) over 14 h. […]

Series [4] relates to L1210/0. Nature of the series: Cytostatic assay, L1210/0 cells. The settings on record: Mus musculus; for IC50: read-out: IC50 L1210/0. In kind it is cell-based, murine. An excerpt: The cell lines employed were L1210/0 (a leukemia cell line), FM3A/0 (a breast cancer cell line), Cem/0 (an acute lymphoblastic leukemia cell line) and HeLa (a cervical cell line).

Where two headings read alike, the source gives them in different places.

By CC50 is commonly meant the concentration at which the toxic effect on the cells reaches its halfway point. Consider `C[C@H](NP(=O)(OC[C@H]1O[C@@H](n2cc(F)c(=O)[nH]c2=O)CC1O)Oc1cccc2ccccc12)C(=O)OCc1ccccc1` (stereo partly drawn) [CPF 373, 5-Fluoro-2′deoxyuridine-5′-O-[1-naphthyl (benzoxy-L-alaninyl)] phosphate], for which the “Phosphorolysis by human UP” value in series [1] is “not affected”. In addition, the “Phosphorolysis by human TP” value in series [2] was “fully stable”. The “time to complete conversion of parent to the putative intermediate” value in series [3] was not above 26 min. Moreover, in series [4] (L1210/0, Table 2, mycoplasma negative cells, read-out: CC50 L1210), the cytotoxic concentration (CC50) was determined as 11 nM. The IC50 in series [4] (L1210/0, Table 3) turned out to be 11 nM; in series [4] (L1210/0, Table 6), 11 ± 7 nM; in series [4] (L1210/0, Table 7) it was 11 ± 9 nM.
